Data taken from article PMC7827406, “Structure–Activity Relationship (SAR) Study of Spautin-1 to Entail the Discovery of Novel NEK4 Inhibitors” (International Journal of Molecular Sciences, 2021).
Read-outs that look alike come from different tables or passages of the source.

What was measured:
Assay in all cases: biochemical
Parameters in all cases: Eurofins KinaseProfiler full panel at Km ATP, residual kinase activity (%) relative to DMSO
[1] = target: Blk(h) (Homo sapiens, UniProt P51451)
Method in brief: (§1)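 Radiometric kinase activity assays were run with ATP at Km and compounds at 10 µM, and remaining activity (%) was reported. A separate competitive binding screen measured DNA-tagged kinase displaced from immobilized active-site ligands by qPCR, giving percent kinase still bound at 10 µM compound in DMSO.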

[2] = target: T1, Aurora-B(h) (Homo sapiens, UniProt Q96GD4)
T1 construct: gene AURKB
Method in brief: as §1

[3] = target: T2, CRIK(h) (Homo sapiens, UniProt O14578)
T2 construct: gene CIT
Method in brief: as §1

[4] = target: T3, NEK9(h) (Homo sapiens, UniProt Q8TD19)
T3 sequence (Q8TD19 1-979): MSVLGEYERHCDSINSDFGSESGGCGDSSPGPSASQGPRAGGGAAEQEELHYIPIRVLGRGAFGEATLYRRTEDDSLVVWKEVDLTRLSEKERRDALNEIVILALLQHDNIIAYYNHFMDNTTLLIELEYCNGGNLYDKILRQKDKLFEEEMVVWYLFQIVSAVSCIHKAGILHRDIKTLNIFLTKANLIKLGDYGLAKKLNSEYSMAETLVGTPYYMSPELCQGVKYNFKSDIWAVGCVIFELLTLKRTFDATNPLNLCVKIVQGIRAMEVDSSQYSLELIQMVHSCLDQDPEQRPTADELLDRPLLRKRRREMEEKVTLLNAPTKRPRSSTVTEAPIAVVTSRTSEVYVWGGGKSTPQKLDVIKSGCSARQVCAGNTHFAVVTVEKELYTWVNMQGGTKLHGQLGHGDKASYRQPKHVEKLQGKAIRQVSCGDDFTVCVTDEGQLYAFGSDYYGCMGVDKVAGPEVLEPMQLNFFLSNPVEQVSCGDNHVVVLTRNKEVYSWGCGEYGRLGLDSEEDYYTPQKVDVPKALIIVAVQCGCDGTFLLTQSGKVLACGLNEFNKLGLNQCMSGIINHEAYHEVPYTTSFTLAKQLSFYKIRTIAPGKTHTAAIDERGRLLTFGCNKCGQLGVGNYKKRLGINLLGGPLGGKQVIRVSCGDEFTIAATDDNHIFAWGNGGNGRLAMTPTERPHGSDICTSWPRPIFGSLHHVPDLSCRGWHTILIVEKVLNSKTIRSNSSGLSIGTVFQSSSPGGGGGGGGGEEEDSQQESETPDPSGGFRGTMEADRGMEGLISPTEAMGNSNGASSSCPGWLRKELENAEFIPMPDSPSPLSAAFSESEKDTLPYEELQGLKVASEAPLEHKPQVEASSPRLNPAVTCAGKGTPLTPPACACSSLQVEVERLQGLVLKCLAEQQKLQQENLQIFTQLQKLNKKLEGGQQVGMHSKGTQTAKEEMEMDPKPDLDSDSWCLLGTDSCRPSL
Method in brief: as §1

[5] = target: T4, SAPK2b(h) (Homo sapiens, UniProt Q15759)
T4 construct: gene MAPK11
Method in brief: as §1

[6] = target: T5, PKG1β(h) (Homo sapiens, UniProt Q13976)
T5 construct: gene PRKG1; isoform 1beta
T5 sequence (Q13976 1-671): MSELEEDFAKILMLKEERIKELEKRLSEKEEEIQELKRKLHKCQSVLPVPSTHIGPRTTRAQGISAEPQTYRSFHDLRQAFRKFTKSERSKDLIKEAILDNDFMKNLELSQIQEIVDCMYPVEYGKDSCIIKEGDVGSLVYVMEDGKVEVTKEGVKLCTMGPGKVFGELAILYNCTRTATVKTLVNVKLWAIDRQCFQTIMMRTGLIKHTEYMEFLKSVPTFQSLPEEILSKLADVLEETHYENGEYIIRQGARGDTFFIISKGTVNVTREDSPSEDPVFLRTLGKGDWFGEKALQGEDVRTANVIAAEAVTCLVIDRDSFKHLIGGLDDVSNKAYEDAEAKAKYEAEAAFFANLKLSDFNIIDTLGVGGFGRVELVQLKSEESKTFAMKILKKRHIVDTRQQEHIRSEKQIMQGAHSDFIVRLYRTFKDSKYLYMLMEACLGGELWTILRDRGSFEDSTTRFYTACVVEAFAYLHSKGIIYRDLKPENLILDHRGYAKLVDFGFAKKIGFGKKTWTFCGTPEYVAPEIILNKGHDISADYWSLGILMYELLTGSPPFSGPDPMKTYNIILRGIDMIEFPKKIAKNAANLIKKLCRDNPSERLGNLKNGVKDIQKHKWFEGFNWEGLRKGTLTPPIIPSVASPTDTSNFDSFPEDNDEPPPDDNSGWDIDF
Method in brief: as §1

[7] = read-out: Residual activity (%) Spautin-1 5aa
[8] = read-out: Residual activity (%) 5as
[9] = read-out: Residual activity (%) 5at
[10] = read-out: Residual activity (%) 5ay

T4 sequence (Q15759 whole entry): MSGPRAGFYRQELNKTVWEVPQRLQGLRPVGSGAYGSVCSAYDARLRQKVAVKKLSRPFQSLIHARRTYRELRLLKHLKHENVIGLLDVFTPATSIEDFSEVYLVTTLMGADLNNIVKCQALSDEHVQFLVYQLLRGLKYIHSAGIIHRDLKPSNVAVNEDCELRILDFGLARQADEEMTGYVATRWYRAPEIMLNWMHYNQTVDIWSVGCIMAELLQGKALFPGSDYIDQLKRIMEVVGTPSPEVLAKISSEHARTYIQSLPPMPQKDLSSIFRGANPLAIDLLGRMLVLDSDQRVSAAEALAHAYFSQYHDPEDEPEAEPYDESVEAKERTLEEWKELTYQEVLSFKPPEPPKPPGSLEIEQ
T1 sequence (Q96GD4 whole entry): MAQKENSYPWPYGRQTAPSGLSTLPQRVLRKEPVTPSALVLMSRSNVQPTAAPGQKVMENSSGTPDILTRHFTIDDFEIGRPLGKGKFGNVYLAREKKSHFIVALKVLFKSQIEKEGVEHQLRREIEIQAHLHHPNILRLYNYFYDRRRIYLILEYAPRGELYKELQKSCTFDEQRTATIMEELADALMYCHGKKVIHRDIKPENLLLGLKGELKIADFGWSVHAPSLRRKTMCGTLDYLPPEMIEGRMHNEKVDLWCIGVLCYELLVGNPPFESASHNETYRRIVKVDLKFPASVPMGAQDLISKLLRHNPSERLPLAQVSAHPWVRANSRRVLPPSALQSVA
Blk(h), sequence (P51451 whole entry): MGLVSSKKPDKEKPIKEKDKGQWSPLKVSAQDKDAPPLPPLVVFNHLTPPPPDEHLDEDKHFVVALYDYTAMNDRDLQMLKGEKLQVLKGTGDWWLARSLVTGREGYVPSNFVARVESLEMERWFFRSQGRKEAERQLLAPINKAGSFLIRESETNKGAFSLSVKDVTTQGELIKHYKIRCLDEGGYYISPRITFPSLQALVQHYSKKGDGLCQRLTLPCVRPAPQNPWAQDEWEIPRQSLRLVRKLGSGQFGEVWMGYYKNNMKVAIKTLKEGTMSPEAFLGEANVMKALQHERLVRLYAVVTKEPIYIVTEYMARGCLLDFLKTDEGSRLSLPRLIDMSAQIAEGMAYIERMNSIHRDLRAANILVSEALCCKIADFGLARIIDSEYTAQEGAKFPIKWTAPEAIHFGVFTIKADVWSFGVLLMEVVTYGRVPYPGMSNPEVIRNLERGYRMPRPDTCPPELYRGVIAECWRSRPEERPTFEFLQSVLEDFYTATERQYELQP
T2 sequence (O14578 whole entry): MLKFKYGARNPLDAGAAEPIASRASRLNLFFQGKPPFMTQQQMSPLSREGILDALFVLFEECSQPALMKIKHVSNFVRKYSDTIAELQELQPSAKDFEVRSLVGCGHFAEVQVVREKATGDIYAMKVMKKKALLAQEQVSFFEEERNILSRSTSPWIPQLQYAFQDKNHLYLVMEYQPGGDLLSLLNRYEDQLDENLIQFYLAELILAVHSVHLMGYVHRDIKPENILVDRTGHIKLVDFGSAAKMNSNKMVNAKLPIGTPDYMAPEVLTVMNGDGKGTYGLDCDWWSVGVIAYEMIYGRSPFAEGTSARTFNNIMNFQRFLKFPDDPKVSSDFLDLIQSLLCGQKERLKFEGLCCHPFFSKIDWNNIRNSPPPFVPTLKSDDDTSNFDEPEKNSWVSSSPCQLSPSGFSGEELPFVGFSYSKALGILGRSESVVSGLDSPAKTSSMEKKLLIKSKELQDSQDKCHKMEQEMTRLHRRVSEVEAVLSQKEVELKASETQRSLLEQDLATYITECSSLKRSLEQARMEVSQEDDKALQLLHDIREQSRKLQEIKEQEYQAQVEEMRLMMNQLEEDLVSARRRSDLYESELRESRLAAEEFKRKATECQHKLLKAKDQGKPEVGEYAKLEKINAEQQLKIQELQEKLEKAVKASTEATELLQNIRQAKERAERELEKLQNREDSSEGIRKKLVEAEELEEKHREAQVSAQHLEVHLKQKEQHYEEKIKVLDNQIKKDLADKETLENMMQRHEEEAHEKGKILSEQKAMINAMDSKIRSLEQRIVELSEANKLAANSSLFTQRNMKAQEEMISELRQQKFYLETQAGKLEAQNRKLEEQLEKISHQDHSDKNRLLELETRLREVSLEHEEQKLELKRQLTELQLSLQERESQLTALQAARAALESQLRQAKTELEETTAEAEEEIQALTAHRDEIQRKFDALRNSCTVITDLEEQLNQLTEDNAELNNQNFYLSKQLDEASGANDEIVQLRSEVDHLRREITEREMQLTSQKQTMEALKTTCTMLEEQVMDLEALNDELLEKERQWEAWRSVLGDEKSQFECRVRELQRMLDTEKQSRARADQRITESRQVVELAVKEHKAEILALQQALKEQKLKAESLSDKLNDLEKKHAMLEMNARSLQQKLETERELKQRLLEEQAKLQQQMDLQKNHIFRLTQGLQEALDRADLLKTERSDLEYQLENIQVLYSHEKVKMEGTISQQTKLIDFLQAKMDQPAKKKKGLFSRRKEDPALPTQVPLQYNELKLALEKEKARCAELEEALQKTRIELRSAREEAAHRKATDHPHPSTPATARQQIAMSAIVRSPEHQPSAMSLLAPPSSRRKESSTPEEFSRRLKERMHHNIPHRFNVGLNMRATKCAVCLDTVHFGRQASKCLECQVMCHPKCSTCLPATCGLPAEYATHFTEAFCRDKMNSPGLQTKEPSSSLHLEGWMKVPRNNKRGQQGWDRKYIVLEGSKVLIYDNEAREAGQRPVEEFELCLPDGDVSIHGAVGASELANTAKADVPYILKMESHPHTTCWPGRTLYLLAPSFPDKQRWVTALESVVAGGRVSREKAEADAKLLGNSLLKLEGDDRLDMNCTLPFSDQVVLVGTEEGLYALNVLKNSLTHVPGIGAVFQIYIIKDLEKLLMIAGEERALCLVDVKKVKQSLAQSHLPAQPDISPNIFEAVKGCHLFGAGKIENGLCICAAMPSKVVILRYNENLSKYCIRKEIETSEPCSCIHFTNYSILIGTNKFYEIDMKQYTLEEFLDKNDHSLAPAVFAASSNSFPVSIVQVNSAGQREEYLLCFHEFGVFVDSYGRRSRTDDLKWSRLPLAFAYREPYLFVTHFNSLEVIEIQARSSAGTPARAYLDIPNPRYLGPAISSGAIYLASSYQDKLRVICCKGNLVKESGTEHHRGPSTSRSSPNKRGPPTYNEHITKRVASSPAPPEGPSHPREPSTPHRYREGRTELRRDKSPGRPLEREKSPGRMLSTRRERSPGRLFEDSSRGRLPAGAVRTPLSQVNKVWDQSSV

## Fc1ccc(CNc2ncnc3ccc(F)cc23)cc1 [5aa, 6-Fluoro-N-(4-fluorobenzyl)-4-Quinazolinamine]
[1]; [7]
  remaining activity at 10 µM: 97%
[2]; [7]
  remaining activity at 10 µM: 85%
[3]; [7]
  remaining activity at 10 µM: 90%
[4]; [7]
  remaining activity at 10 µM: 98%
[5]; [7]
  remaining activity at 10 µM: 79%
[6]; [7]
  remaining activity at 10 µM: 91%

## Fc1ccc(CCNc2ncnc3ccc(F)cc23)cc1 [5as, 6-Fluoro-N-[2-(4-Fluorophenyl)Ethyl]-4-Quinazolinamine]
[1]; [8]
  remaining activity at 10 µM: 100%
[2]; [8]
  remaining activity at 10 µM: 69%
[3]; [8]
  remaining activity at 10 µM: 101%
[4]; [8]
  remaining activity at 10 µM: 103%
[5]; [8]
  remaining activity at 10 µM: 95%
[6]; [8]
  remaining activity at 10 µM: 84%

## Fc1ccc2ncnc(NCCc3ccc(Cl)cc3)c2c1 [5at, N-[2-(4-Chlorophenyl)Ethyl]-6-Fluoro-4-Quinazolinamine]
[1]; [9]
  remaining activity at 10 µM: 91%
[2]; [9]
  remaining activity at 10 µM: 48%
[3]; [9]
  remaining activity at 10 µM: 89%
[4]; [9]
  remaining activity at 10 µM: 92%
[5]; [9]
  remaining activity at 10 µM: 84%
[6]; [9]
  remaining activity at 10 µM: 76%

## COc1ccc2ncnc(Nc3cccc(F)c3)c2c1 [5ay, N-(3-Fluorophenyl)-6-Methoxy-4-Quinazolinamine]
[1]; [10]
  remaining activity at 10 µM: 85%
[2]; [10]
  remaining activity at 10 µM: 59%
[3]; [10]
  remaining activity at 10 µM: 76%
[4]; [10]
  remaining activity at 10 µM: 92%
[5]; [10]
  remaining activity at 10 µM: 83%
[6]; [10]
  remaining activity at 10 µM: 94%
